# Patent publication US8349835B2, “Aromatic ring fused triazine derivatives and uses thereof” (Shenyang Pharmaceutical University, priority 2008, dated 2013)
# How the values were obtained:
# [1] = test system: Microvascular Endothelial Cells (MVEC); assay: MTT growth inhibition of MVEC; assay type: cell-based; details: Endothelial cell, 96 h, 4 days culture with drug, read-out: IG50 on inhibiting growth of MVEC
# In short: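 MVEC were seeded at 2×10^4 cells/mL in DMEM with 10% FBS and allowed to attach for 24 h, then treated with compound at final concentrations of 5–80 μmol/L (triplicates) for 4 days at 37 °C. MTT (4 h) absorbance at 570 nm gave % growth inhibition relative to untreated cells.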
# [2] = test system: murine melanoma cells (B16F0); assay: MTT growth inhibition of B16F0; assay type: cell-based; details: Mus musculus, 96 h, 4 days, read-out: IG50 B16F0
# Procedure: (§1) In Vitro Anti-Tumor Activity Test
# (§2) Put cell suspension into centrifugal tubes with a pipette under sterile conditions, then the cell suspension was centrifuged for 3 minutes at 1300 rpm. Discarded the supernatant lightly and added fresh culture medium. Mixed the cells by pipetting, then transferred the cells into culture flasks, and put them into the CO2 incubator. Changed the culture medium once after 24 hours.
# (§3) Human prostate cancer cells (DU145, PC-3) were cultured in a medium containing RPMI1640 basic medium supplemented with 10% heat-inactivated FBS, 100 IU/mL penicillin, 100 μg/mL streptomycin and 1 mmol/L L-glutamine. Human breast carcinoma cells (T47D, MDA-MB231) were cultured in a medium containing RPM11640 basic medium supplemented with 10% heat-inactivated FBS, 5 μg/mL insulin, 100 IU/mL penicillin, 100 μg/mL streptomycin and 1 mmol/L L-glutamine. Human breast carcinoma cells (MCF-7) were cultured in a medium containing DMEM basic medium supplemented with 10% heat-inactivated FBS, 5 μg/mL insulin, 100 IU/mL penicillin, 100 μg/mL streptomycin and […]. Murine Lewis lung cancer cells (LL/2), murine melanoma cells (B16FD) and Microvascular Endothelial Cells (MVEC) were cultured in a medium containing DMEM basic medium supplemented with 10% heat-inactivated FBS, 4.5 g/L glucose, 1.5 g/L NaHCO3, 100 IU/mL penicillin, 100 μg/mL streptomycin and 4 mmol/L L-glutamine. All these cell lines were incubated at 37° C. biochemical incubator with 5% CO2 saturated humidity.
# (§4) After resuscitation, the cells were passed for 2-3 generations till they became stable, then they were used for the experiments. Each passage was based on the standard that all cells were spread over the bottoms of culture flasks.
# (§5) Cells were digested off from the bottoms of culture flasks with trypsin (0.25%). The cell dissociation buffer was transferred into centrifuge tubes, added medium to stop the digestion, and centrifuged for 3 minutes at 1300 rpm. Discarded the supernatant lightly and added fresh culture medium (5 mL). Mixed the cells by pipetting, then added 10 μL of the cell suspension into the cell counting plate, and adjusted the cell concentration to 2×10^4 cells/mL. Added 100 μL of the cell suspension to all wells on the 96 well plates, except A1 well as the blank control. Put the plates into the biochemical incubator for 24 hours and to make sure the cells grew along the walls. […]
# (§6) Added 50 μL MTT liquids (2 mg/mL) into each well, put the culture plates into the biochemical incubator for 4 h, discarded MTT liquids (TCC), added 200 μL DMSO, then oscillated for 10 minutes on the magnetic oscillator to make sure that the survived cells and the reaction product of MTT were fully dissolved. Detected and recorded the absorbance (OD) values of each well at the wavelength of 570 nm using the microplate reader. […] The cell growth inhibition rates under each drug concentration were calculated by the following formula. […] Inhibition rate of growth(%)=(1−The absorbance(OD)of cells with tested drugs/The absorbance(OD)of the blank control group)×100%
# (§7) The absorbance (OD) of cells with tested drugs: OD value is measured with the test drugs.
# (§8) The absorbance (OD) of the blank control group: OD value is measured without the test drugs. […]
# [3] = test system: Human Umbilical Vein Endothelial Cells (HUVEC); assay: MTT growth inhibition of HUVEC; assay type: cell-based; details: 96 h, 4 days, read-out: IG50 HUVEC
# Procedure: as §1, §2, §4
# Cells were digested off from the bottoms of culture flasks with trypsin (0.25%). The cell dissociation buffer was transferred into centrifuge tubes, added medium to stop the digestion, and centrifuged for 3 minutes at 1300 rpm. Discarded the supernatant lightly and added fresh culture medium (5 mL). Mixed the cells by pipetting, then added 10 μL of the cell suspension into the cell counting plate, and adjusted the cell concentration to 2×10^4 cells/mL. Added 100 μL of the cell suspension to all wells on the 96 well plates, except A1 well as the blank control. Put the plates into the biochemical incubator for 24 hours and to make sure the cells grew along the walls.
# The drugs were dissolved in 80 mmol/L DMSO first, and then diluted the drugs with ethanol to 8 mmol/L. The solution was further diluted with the culture medium to different concentrations as 160 μmol/L, 120 μmol/L, 80 μmol/L, 40 μmol/L, 20 μmol/L and 10 μmol/L. Added 100 μL of the drug solution to each well on the 96 well plates. Therefore, the final concentrations of the drugs that were added to the cells were 80 μmol/L, 40 μmol/L, 20 μmol/L, 10 μmol/L and 5 μmol/L, and each concentration were repeated in three parallel wells. Put the culture plates into the biochemical incubator to culture continuously for 4 days.
# Added 50 μL MTT liquids (2 mg/mL) into each well, put the culture plates into the biochemical incubator for 4 h, discarded MTT liquids (TCC), added 200 μL DMSO, then oscillated for 10 minutes on the magnetic oscillator to make sure that the survived cells and the reaction product of MTT were fully dissolved. Detected and recorded the absorbance (OD) values of each well at the wavelength of 570 nm using the microplate reader. The OD values of cells without tested drugs were used as control. The cell growth inhibition rates under each drug concentration were calculated by the following formula. […] Inhibition rate of growth(%)=(1−The absorbance(OD)of cells with tested drugs/The absorbance(OD)of the blank control group)×100%
# as §7
# The absorbance (OD) of the blank control group: OD value is measured without the test drugs.
# 8) The Growth Inhibition Effect of Compounds on Human Breast Carcinoma Cells (T47D, MDA-MB231, MCF-7), Human Prostate Cancer (DUI45, PC-3), Murine Lewis Lung Cancer Cells (LL/2), Murine Melanoma Cells(B16F0) and Human Umbilical Vein Endothelial Cells (HUVEC) (Table 2).
# [4] = test system: Murine Lewis lung cancer cells (LL/2); assay: MTT growth inhibition of LL/2; assay type: cell-based; details: Mus musculus, Lewis lung carcinoma, 96 h; LL/2, MTT, 4 days; read-out: IG50 LL/2
# Procedure: as §1, §2, §3, §4, §5, §6, §7, §8
# [5] = test system: Human prostate cancer cells (DU145); assay: MTT growth inhibition of DU145; assay type: cell-based; details: DU-145, 96 h, 4 days, read-out: IG50 DU145
# Procedure: as §1, §2, §3, §4, §5, §6, §7, §8
# [6] = test system: Human prostate cancer cells (PC-3); assay: MTT growth inhibition of PC-3; assay type: cell-based; details: 96 h, PC-3, MTT, 4 days, read-out: IG50 PC-3
# Procedure: as §1, §2, §3, §4, §5, §6, §7, §8
# [7] = test system: Human breast carcinoma cells (T47D); assay: MTT growth inhibition of T47D; assay type: cell-based; details: 96 h, 4 days, read-out: IG50 T47D
# Procedure: as §1, §2, §3, §4, §5, §6, §7, §8
# [8] = test system: Human breast carcinoma cells (MCF-7); assay: MTT growth inhibition of MCF-7; assay type: cell-based; details: MCF7, 96 h, MCF-7, MTT, 4 days, read-out: IG50 MCF-7
# Procedure: as §1, §2, §3, §4
# (§9) Cells were digested off from the bottoms of culture flasks with trypsin (0.25%). The cell dissociation buffer was transferred into centrifuge tubes, added medium to stop the digestion, and centrifuged for 3 minutes at 1300 rpm. […]
# as §6, §7, §8
# [9] = test system: Human breast carcinoma cells (MDA-MB231); assay: MTT growth inhibition of MDA-MB231; assay type: cell-based; details: MDA-MB-231, 96 h, 4 days, read-out: IG50 MDA-MB231
# Procedure: as §1, §2, §3, §4, §9, §6, §7, §8
# in vivo = details: both sexes, mouse, intraperitoneal, Kunming mice, peritoneal injection, single administration, observed for one week
# Procedure: 9) Acute Toxicity Testing
# Animals: healthy mice of Kunming species, female and male each account for 50%, and the weights range from 18 to 22 g. All the mice were obtained from the laboratory animal center of Shenyang Pharmaceutical University. Certificate number: Liao Shi He Zi No. 033
# Medicine preparation: drugs were added in 0.2% Polysorbate 80 (Tween-80) to make suspension. The dosage of tested compounds was indicated with mg/kg.
# Test period and Observed index: observed for one week after the administration. The toxic reaction information of the mice was recorded everyday during the observation period. The death of mice was regarded as the principal index. Half lethal doses (LD50, mg/kg) of the compounds one week after the drug administration were calculated according to the method of weighted regression.
# Rat aortic ring = assay: Rat Aortic Ring Assay; assay type: cell-based; details: observed on the sixth day
# In short: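 1 mm abdominal aortic rings from 6-week-old SD animals embedded in Matrigel, cultured in DMEM/10% FBS with compound at various concentrations (≥3 wells), medium and compound renewed day 3. Microvessel area imaged on day 6 (×100, 3 random rings); inhibition rate scored: ⋆<30-60%, ⋆⋆60-90%, ⋆⋆⋆>90%.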
# VEGFR-2 = VEGFR-2 (Homo sapiens, UniProt P35968); assay: VEGFR-2 inhibition rate test (kinase assay kit, colorimetric ELISA); details: concentration not given
# Chain of VEGFR-2 (P35968 20-1356): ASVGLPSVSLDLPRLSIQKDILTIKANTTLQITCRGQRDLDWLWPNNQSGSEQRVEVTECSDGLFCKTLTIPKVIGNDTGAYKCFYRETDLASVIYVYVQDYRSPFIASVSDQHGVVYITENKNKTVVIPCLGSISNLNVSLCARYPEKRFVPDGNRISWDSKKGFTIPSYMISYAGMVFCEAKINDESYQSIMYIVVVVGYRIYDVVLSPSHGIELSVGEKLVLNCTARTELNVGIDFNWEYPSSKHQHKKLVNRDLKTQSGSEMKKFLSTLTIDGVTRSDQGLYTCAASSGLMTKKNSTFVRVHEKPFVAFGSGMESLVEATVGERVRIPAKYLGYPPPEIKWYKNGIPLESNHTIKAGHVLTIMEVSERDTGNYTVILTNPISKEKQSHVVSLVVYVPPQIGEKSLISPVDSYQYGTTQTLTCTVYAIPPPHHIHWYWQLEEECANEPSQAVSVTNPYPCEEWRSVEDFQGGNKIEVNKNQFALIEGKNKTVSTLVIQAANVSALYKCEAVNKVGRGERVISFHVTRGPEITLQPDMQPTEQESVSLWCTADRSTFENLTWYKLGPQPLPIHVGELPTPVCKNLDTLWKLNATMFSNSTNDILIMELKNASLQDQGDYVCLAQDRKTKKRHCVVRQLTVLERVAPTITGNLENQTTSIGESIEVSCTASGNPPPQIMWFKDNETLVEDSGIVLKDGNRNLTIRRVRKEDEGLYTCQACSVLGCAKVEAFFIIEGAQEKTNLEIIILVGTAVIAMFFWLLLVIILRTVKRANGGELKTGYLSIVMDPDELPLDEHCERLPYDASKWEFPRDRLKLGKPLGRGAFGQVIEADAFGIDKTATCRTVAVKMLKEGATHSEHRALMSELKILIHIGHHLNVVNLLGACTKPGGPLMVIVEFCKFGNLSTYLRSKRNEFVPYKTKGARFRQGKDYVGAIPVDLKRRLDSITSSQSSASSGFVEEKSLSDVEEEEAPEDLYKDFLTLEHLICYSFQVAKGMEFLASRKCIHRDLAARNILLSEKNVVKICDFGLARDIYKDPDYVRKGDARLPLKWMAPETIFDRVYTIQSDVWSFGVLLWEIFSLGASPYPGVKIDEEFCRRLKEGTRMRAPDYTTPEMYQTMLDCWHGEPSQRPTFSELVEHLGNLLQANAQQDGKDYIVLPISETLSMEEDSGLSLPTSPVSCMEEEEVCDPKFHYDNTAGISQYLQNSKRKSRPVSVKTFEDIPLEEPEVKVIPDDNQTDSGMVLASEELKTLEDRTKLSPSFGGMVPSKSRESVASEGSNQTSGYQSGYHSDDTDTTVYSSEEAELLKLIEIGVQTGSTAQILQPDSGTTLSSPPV
SMILES,IC50 [1] [µM],IC50 [2] [µM],IC50 [3] [µM],IC50 [4] [µM],IC50 [5] [µM],IC50 [6] [µM],IC50 [7] [µM],IC50 [8] [µM],IC50 [9] [µM],LD50 at 1 week (in vivo) [mg/kg],"Rat Aortic Ring Assay (10 ug/ml), result in words (Rat aortic ring)",Kinase inhibition rate (VEGFR-2) (VEGFR-2)
"CCCCOc1cc2nnnc(Nc3ccc(C)cc3)c2cc1OC [Example 27, 6-methoxy-7-n-butoxy-4-(4-methylanilino)-benzo[d][1,2,3]triazine]",9.09,22.2,5.06,15.7,15.1,15.8,18.4,6.17,19.6,733,–,–
"FC(F)(F)c1cccc(Nc2nnnc3ccc(Cl)nc23)c1 [Example 84, 6-chloro-4-(3-trifluoromethylanilino)pyrido[3,2-d][1,2,3]triazine]",5.25,4.28,3.02,4.79,5.9,6.9,5.87,3.95,5.1,424,"Almost complete inhibition (10 μg/mL), vascular ring was dead",–
"FC(F)(F)Oc1cccc(Nc2nnnc3ccc(Cl)nc23)c1 [Example 86, 6-chloro-4-(3-trifluoromethoxyanilino)pyrido[3,2-d][1,2,3]triazine]",4.28,4.67,2.21,4.13,4.14,5.99,6.42,4.55,4.71,292,"Almost complete inhibition (10 μg/mL), vascular ring was dead",29.93
